The values below come from ChEMBL document CHEMBL3217475, “INPHARMA-based identification of ligand binding site in fragment-based drug design” (Medchemcomm, 2012).

The nature of this experiment: Inhibition of glycogen phosphorylase (unknown origin) by INPHARMA method. Further details: species or system Homo sapiens.

In turn, `CN1CC[C@H](c2c(O)cc(O)c3c(=O)cc(-c4ccccc4Cl)oc23)[C@H](O)C1` [ALVOCIDIB] yielded an IC50 of 1 µM.

In turn, `Cn1c(=O)c2c(ncn2C)n(C)c1=O` [CAFFEINE] came in with an IC50 of 100 µM.

For orientation: IC50 means the concentration at which inhibition is half-maximal.
